Consider one compound from US6399649B1, “Compositions and methods for the treatment of chronic lymphocytic leukemia” (Boston Medical Center Corporation, priority 1998, dated 2002).

The structures appear in SMILES notation.

By IC50 is commonly meant the concentration that inhibits the measured activity by half.

One data set has as its system PDE-4B transcript. Description: Northern analysis of PDE-4B transcript in cultured CLL cells. The following applies: 10 uMol/L, six hour culture period. It is filed as cell-based, human.
In data set [1] the test system is PDE activity in CLL cells. As to the kind of experiment: cAMP PDE assay on CLL cell lysates. Format: biochemical, human. The note with it: 10 uMol/L. From the text: The technique of Robiesek et al., itself adapted from an assay described by Thompson and Appleman, was used in modified form. S. A. Robicsek et al., “Multiple high-affinity cAMP-phosphodiesterases in human T-lymphocytes,” Biochem. Pharmacol. 42:869 (1991). W. J. Thompson and M. M. Appleman, “Multiple cyclic nucleotide phosphodiesterase activities from rat brain,” Biochemistry 10:311 […]. 150 million purified CLL cells were pelleted and sonicated (Branson 350 Sonifier with micropit probe, output =2, 50% duty cycle) on ice in 1.0 mL of a buffer which contained 20 mMol/L Tris (pH 6.8), 1 mMol/L EDTA, aprotinin (50 u/mL), pepstatin (1 mg/mL), PMSF (1 mMol/L) and 3.75 mMol/L b-ME. Assay buffer contained 100 mMol/L Tris (pH 8.0), 20 mMol/l MgCl2, 0.2% BSA and 7.5 mMol/L b-ME. [^3H]-cAMP (NEN, Boston, Mass.) was incubated with PDE for 10 minutes at 30° C. in 20 uL volumes (10 uL of sonication buffer and 10 uL of assay buffer) which contained 0.22 units of alkaline phosphatase. 10 uMol/L rolipram or 0.2 mMol/L calcium/20 nMol/L calmodulin were added to the assay buffer as appropriate. Reactions were halted by the addition of 0.5 mL of a 1:3 slurry w/v slurry of AG1-X8 anion exchange resin and a mixture of equal volumes of water and isopropanol. […] The radiolabelled nucleosides in the supernatant were counted using Ecoscint scintillation fluid (National Diagnostics, Atlanta, Ga.). […]

The subject of a further data set is CD19+ B cells. As to the kind of experiment: cAMP assay (RIA) in CD19+ B cells. Format: cell-based, human. The note with it: at two hours; unstimulated or anti-Ig stimulated. Here is the method: (§1) One million cells in 1 mL were treated for two hours with or without drugs. 0.8 mL of cells were pelleted by spinning at 4,000 rpm (RCF=1,310) in microcentrifuge tube. After discarding 0.7 mL, 400 uL of ethanol was added, vortexed and left on ice for five minutes. Particulate cell debris was removed by centrifugation at 14,000 rpm (RCF=16,000). The supernatant was stored at −20° C. until the day of assay, at which time it was dried in a Speedivac (Savant, Farmingdale, N.Y.) to a volume of 50 uL. After ten-fold dilution in 10 mMol/L Tris pH 8.0, 1 mMol/L EDTA, the cAMP sample was analyzed for cAMP concentration using a cAMP RIA kit (NEN, Boston, Mass.) according to the manufacturer's instructions using the nonacetylated protocol.
(§2) For each of the four cell populations, two or six hours after drug treatment, cAMP levels were higher for rolipram/forskolin-treated cells than for forskolin only treated cells (test: one tailed significance level<0.05) (FIG. 9).
A general note: Changes in cAMP serve as a functional read-out for many G protein-coupled receptors.

A further data set has as its system CLL cells. Description: DNA ladder gel assay. The note with it: 72 hours; 10 uMol/L rolipram, 40 uMol/L forskolin. It is filed as cell-based, human. Here is the method: 10 million purified CLL cells were harvested by centrifugation following exposure to drugs during a 72 hour tissue culture incubation. Cells were lysed in 0.5 mL of 20 mMol/L Tris (pH 7.4), 0.4 mMol/L EDTA, 0.25% Triton X. After 15 minutes of incubation at room temperature, nuclei were removed by centrifugation at 14,000 rpm (RCF=16,000). The supernatant was transferred to a new tube and soluble DNA precipitated overnight at −20° C. following the addition of […] of 5 Mol/L NaCl and […] of isopropanol. After centrifugation at 14000 rpm for 10 minutes, followed by a 70% ethanol wash, the pellet was resuspended in 20 uL of 10 mMol/L Tris (pH 8.0), 1 mMol/L EDTA, 0.1 mg/mL RNase and incubated at 37° C. for 30 minutes prior to electrophoresis on 1.6% TBE agarose gels. DNA fragments were visualized by UV light after staining the gels with ethidium bromide.
Consequently, a study of the activity of type 4-specific PDE inhibitors as inducers of cAMP-mediated apoptosis in leukemic cells from CLL patients was carried out. CLL cells were incubated for 72 hours either alone or with 10 uMol/L rolipram, 40 uMol/L forskolin or both agents. We tested whether rolipram induces intemucleosomal DNA fragmentation characteristic of apoptosis by isolating soluble DNA from the leukemic cells with detergent treatment, then removing DNA from intact non-apoptotic nuclei by centrifugation. […]

For data set [2], the system named is CLL cells, resting or anti-Ig activated CD19+ cells, IL-2 supplemented WMC. As to the kind of experiment: cAMP time course in four cell populations. It is filed as cell-based, human. The note with it: 24 hours; any of the four cell populations. As to the method:
as §1, with “One million cells in 1 mL were treated for two hours with or without drugs.” left out
as §2

The next data set deals with Type 4 enzymes. The note with it: cited from earlier work.
The conditions of data set [3]: cited from earlier work.

Procedure for PDE-4B transcript: RNA was isolated from CLL or whole mononuclear cells using Ultraspec reagent (Biotecx, Houston, Tex.). cDNA was synthesized from 10 ug of total RNA using oligo d(T) primers and Maloney murine leukemia virus reverse transcriptase in a final volume of 40 uL (Stratagene, La Jolla, Calif.). One mL of the first strand cDNA product was then used as template for PCR amplification with AmpliTaq DNA polymerase (Roche Molecular Systems, Branchburg, N.J.) by 40 thermocycles of 94° C. for 1 minute, 600° C. for 1 minute and 72° C. for 1 minute. […] For hybridization to Northern blots, these PCR products were subcloned into a plasmid vector (pCRII, Invitrogen, Carlsbad, Calif.) and subsequently utilized for PCR-based amplification of a32P dATP-labelled probes.
RNA was isolated from 20 million CLL cells immediately after cell purification (CT), or after 6 hours culture in media alone (6 Hr) or with addition of 10 uMol/L rolipram (Roli). Equal loading and transfer of RNA was confirmed by hybridization with an actin probe as shown.

As to `COc1ccc(C2CNC(=O)C2)cc1OC1CCCC1` (racemic) [rolipram, 4-(3-cyclopentyloxy-4-methoxyphenyl)-2-pyrrolidone], the PDE-4B transcript levels entry in the data set on PDE-4B transcript is recorded as “significantly reduced this fall in PDE-4B transcript levels”. The “PDE activity in CLL cells” value in data set [1] was “inhibited”. Further, the “cAMP levels in CD19+ B cells” value in the data set on CD19+ B cells is on record as “raised cAMP levels equivalently”. Moreover, in the data set on CLL cells, the “internucleosomal DNA fragmentation” value is “pronounced internucleosomal DNA fragmentation”. The “augmentation of forskolin-stimulated cAMP accumulation” value in data set [2] is on record as “no longer significant rolipram-induced augmentation”. Also, at Type 4 enzymes, the IC50 was 1000 nM. Also, in data set [3] (humans, higher dosages), the emesis entry is recorded as “emetogenic”. Further, the tolerability result in data set [3] (studied as an antidepressant in humans) is listed as “well tolerated”.
